In publication PMC11864979, “First-in-class ultralong-target-residence-time p38α inhibitors as a mitosis-targeted therapy for colorectal cancer” (Nature Cancer, 2025):
Read-outs that look alike come from different tables or passages of the source.

What was measured:
Test in all cases: selectivity profiling in a panel of 340 wild-type kinases (Reaction Biology Europe)
Format in all cases: binding
340 wild-type kinases [1] = target: T1, 340 wild-type kinases (Homo sapiens, UniProt Q8NE63)
T1 construct: purchased Reaction Biology Europe
T1 sequence (Q8NE63 1-616): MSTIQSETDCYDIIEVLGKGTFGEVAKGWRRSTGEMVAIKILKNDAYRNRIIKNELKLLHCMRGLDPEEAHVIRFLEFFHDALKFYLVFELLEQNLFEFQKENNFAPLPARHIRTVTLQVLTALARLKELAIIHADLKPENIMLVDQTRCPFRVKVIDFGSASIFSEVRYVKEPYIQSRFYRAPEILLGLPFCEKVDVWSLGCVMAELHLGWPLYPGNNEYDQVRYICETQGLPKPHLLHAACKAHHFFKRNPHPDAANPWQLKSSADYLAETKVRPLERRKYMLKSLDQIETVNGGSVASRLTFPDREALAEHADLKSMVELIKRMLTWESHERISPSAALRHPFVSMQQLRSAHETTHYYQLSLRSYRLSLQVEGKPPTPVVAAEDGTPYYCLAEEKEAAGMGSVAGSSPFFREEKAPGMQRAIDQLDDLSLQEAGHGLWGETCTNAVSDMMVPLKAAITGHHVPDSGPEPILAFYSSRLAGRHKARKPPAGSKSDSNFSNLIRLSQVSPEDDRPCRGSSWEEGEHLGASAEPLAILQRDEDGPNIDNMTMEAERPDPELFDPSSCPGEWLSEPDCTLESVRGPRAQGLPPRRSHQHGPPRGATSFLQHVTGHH

340 wild-type kinases [2] = target: T2, 340 wild-type kinases (Homo sapiens, UniProt P51955)
T2 construct: purchased Reaction Biology Europe
T2 sequence (P51955 1-445): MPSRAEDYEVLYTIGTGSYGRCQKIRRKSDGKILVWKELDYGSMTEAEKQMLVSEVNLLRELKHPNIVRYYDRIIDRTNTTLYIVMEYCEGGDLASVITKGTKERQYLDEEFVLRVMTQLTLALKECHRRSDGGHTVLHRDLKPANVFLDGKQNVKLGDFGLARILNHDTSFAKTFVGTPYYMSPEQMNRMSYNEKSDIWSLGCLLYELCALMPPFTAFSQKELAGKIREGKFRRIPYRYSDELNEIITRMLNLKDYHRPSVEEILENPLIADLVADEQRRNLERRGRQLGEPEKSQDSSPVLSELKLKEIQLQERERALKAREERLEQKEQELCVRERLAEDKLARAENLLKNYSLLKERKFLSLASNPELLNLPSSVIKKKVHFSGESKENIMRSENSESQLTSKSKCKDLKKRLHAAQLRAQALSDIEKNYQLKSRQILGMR

340 wild-type kinases [3] = target: T3, 340 wild-type kinases (Homo sapiens, UniProt Q9Y243)
T3 construct: purchased Reaction Biology Europe

340 wild-type kinases [4] = target: T4, 340 wild-type kinases (Homo sapiens, UniProt P51817)
T4 construct: purchased Reaction Biology Europe
T4 sequence (P51817 1-358): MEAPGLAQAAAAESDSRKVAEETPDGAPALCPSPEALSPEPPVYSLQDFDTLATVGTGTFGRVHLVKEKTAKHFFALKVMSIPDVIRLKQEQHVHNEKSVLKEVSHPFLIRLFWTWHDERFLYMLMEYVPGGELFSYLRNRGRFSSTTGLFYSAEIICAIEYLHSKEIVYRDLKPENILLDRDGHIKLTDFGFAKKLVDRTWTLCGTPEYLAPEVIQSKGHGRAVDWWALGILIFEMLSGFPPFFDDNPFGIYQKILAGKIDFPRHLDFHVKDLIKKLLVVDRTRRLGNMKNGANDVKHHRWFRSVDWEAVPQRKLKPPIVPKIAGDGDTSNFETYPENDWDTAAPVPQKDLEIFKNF

340 wild-type kinases [5] = target: T5, 340 wild-type kinases (Homo sapiens, UniProt Q9HC98)
T5 construct: purchased Reaction Biology Europe

340 wild-type kinases [6] = target: T6, 340 wild-type kinases (Homo sapiens, UniProt P45984)
T6 construct: purchased Reaction Biology Europe

340 wild-type kinases [7] = target: T7, 340 wild-type kinases (Homo sapiens, UniProt Q8NG66)
T7 construct: purchased Reaction Biology Europe
T7 sequence (Q8NG66 1-645): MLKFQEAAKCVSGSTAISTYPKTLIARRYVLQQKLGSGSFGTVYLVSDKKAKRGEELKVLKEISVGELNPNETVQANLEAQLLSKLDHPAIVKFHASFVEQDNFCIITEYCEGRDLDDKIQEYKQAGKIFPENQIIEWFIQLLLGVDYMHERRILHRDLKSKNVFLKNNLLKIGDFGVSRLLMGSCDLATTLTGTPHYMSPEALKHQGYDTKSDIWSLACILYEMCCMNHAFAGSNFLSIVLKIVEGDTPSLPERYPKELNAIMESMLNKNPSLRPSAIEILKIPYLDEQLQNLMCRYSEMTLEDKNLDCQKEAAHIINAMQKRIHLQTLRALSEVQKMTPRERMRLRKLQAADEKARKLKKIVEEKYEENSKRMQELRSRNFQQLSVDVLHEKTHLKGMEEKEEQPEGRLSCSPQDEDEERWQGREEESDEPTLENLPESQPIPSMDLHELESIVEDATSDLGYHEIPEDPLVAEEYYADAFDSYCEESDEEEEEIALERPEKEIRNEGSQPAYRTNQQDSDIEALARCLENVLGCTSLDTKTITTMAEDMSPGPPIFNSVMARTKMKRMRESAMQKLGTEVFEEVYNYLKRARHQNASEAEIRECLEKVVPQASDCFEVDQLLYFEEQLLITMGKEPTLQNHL

340 wild-type kinases [8] = target: T8, 340 wild-type kinases (Homo sapiens, UniProt Q9HCP0)
T8 construct: purchased Reaction Biology Europe
T8 sequence (Q9HCP0 whole entry): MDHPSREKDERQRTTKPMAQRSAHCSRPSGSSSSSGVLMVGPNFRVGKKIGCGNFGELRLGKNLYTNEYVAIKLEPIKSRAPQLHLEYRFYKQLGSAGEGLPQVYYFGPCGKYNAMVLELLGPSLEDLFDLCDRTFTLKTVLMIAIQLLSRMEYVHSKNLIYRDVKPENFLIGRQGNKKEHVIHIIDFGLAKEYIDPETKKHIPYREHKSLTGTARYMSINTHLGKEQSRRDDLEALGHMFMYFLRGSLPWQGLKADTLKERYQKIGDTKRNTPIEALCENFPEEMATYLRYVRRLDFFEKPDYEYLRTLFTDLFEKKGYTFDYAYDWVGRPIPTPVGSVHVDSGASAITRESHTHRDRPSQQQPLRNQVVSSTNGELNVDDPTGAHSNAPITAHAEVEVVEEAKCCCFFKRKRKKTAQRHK

T3 sequence (Q9Y243 whole entry): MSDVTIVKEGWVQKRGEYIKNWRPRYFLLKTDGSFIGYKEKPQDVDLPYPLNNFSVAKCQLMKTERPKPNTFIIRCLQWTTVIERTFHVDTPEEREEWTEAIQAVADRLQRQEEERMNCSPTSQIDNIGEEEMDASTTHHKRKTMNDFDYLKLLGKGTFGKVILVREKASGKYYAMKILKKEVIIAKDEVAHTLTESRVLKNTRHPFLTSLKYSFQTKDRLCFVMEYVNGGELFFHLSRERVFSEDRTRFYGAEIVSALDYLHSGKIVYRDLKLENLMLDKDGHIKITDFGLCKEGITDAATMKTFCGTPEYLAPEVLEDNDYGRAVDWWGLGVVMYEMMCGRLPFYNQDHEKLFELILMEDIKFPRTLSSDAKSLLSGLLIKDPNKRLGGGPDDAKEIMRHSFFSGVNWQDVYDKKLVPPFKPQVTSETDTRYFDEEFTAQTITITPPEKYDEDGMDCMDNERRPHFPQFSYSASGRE
T5 sequence (Q9HC98 whole entry): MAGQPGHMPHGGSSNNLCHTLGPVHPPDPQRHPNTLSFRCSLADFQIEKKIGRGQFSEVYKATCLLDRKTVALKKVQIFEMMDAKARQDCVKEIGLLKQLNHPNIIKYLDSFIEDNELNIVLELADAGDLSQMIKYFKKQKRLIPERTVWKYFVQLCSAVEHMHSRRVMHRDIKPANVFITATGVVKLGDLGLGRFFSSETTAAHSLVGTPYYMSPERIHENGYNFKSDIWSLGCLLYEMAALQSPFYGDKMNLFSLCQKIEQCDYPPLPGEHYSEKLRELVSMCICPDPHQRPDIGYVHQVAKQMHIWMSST
T6 sequence (P45984 whole entry): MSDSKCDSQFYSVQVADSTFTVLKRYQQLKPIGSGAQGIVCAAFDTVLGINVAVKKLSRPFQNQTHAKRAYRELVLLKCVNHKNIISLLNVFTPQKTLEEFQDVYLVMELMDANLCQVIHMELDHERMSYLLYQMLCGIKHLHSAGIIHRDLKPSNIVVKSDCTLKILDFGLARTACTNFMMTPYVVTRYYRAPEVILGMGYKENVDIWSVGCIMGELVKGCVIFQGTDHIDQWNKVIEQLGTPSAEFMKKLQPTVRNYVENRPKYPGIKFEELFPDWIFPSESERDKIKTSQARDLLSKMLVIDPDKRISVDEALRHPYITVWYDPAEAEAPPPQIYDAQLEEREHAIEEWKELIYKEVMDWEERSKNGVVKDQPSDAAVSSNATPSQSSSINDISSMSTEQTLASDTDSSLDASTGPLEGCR

CNC(=O)c1ccc2c(c1)C(=O)c1ccc(Nc3ccc(F)c(NC(=O)C4CC4)c3)cc1CC2 [Compound 2015]
remaining activity at 0.2 µM (340 wild-type kinases [1]; 0.2 µM 2015, read-out: HIPK4 residual activity): 96.4%
remaining activity at 1 µM (340 wild-type kinases [1]; 1 µM 2015, read-out: HIPK4 residual activity): 95.4%
remaining activity at 0.2 µM (340 wild-type kinases [1]; HIPK4, 0.2 µM, read-out: residual activity): 96.4%
remaining activity at 1 µM (340 wild-type kinases [1]; HIPK4, 1 µM, read-out: residual activity): 95.5%
remaining activity at 0.2 µM (340 wild-type kinases [2]; 0.2 µM 2015, read-out: NEK2 residual activity): 104%
remaining activity at 1 µM (340 wild-type kinases [2]; 1 µM 2015, read-out: NEK2 residual activity): 95%
remaining activity at 0.2 µM (340 wild-type kinases [2]; NEK2, 0.2 µM, read-out: residual activity): 104%
remaining activity at 1 µM (340 wild-type kinases [2]; NEK2, 1 µM, read-out: residual activity): 95%
remaining activity at 0.2 µM (340 wild-type kinases [3]; 0.2 µM 2015, read-out: AKT3 residual activity): 96%
remaining activity at 1 µM (340 wild-type kinases [3]; 1 µM 2015, read-out: AKT3 residual activity): 89.5%
remaining activity at 0.2 µM (340 wild-type kinases [3]; AKT3, 0.2 µM, read-out: residual activity): 96%
remaining activity at 1 µM (340 wild-type kinases [3]; AKT3, 1 µM, read-out: residual activity): 89.5%
remaining activity at 0.2 µM (340 wild-type kinases [4]; 0.2 µM 2015, read-out: PRKX residual activity): 107%
remaining activity at 1 µM (340 wild-type kinases [4]; 1 µM 2015, read-out: PRKX residual activity): 97.1%
remaining activity at 0.2 µM (340 wild-type kinases [4]; PRKX, 0.2 µM, read-out: residual activity): 107%
remaining activity at 1 µM (340 wild-type kinases [4]; PRKX, 1 µM, read-out: residual activity): 97%
remaining activity at 0.2 µM (340 wild-type kinases [5]; 0.2 µM 2015, read-out: NEK6 residual activity): 95.6%
remaining activity at 1 µM (340 wild-type kinases [5]; 1 µM 2015, read-out: NEK6 residual activity): 99.3%
remaining activity at 0.2 µM (340 wild-type kinases [5]; NEK6, 0.2 µM, read-out: residual activity): 95.6%
remaining activity at 1 µM (340 wild-type kinases [5]; NEK6, 1 µM, read-out: residual activity): 99.3%
remaining activity at 0.2 µM (340 wild-type kinases [6]; 0.2 µM 2015, read-out: JNK2 residual activity): 61.1%
remaining activity at 1 µM (340 wild-type kinases [6]; 1 µM 2015, read-out: JNK2 residual activity): 40.4%
remaining activity at 0.2 µM (340 wild-type kinases [6]; JNK2, 0.2 µM, read-out: residual activity): 61.1%
remaining activity at 1 µM (340 wild-type kinases [6]; JNK2, 1 µM, read-out: residual activity): 40.4%
effect on JNK2 (in words) (340 wild-type kinases [6]; panel of 340 kinases, 1 µM and 0.2 µM): moderate influence
remaining activity at 1 µM (340 wild-type kinases [7]; 1 µM 2015, read-out: NEK11 residual activity): 95.8%
remaining activity at 0.2 µM (340 wild-type kinases [7]; NEK11, 0.2 µM, read-out: residual activity): 91.3%
remaining activity at 1 µM (340 wild-type kinases [7]; NEK11, 1 µM, read-out: residual activity): 95.8%
remaining activity at 0.2 µM (340 wild-type kinases [8]; 0.2 µM 2015, read-out: CK1gamma1 residual activity): 115%
remaining activity at 1 µM (340 wild-type kinases [8]; 1 µM 2015, read-out: CK1gamma1 residual activity): 107%
remaining activity at 0.2 µM (340 wild-type kinases [8]; CK1gamma1, 0.2 µM, read-out: residual activity): 115%
remaining activity at 1 µM (340 wild-type kinases [8]; CK1gamma1, 1 µM, read-out: residual activity): 107%
